biological target: T1, human 11β-HSD1 (Homo sapiens, UniProt P28845); experiment: Enzymatic 11beta-HSD1 test (SPA-based detection); assay type: biochemical; conditions: human 11β-HSD1 microsome fraction, [1,2-3H]-cortisone, NADPH, 37° C. 1 hour
T1 construct: host or cells: microsome fraction
How it was run: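 Human 11β-HSD1 microsomes (0.2 µg protein) converted [1,2-3H]-cortisone ([…]) for 1 h at 37 °C. The reaction buffer was HEPES/KCl/NaCl/MgCl2 with 0.25 mM NADPH, with compounds added in DMSO. The reaction was stopped with SPA beads, anti-cortisol monoclonal antibody and 0.01 mM SSR110887; after 1 h at room temperature, [3H]-cortisol was scintillation-counted.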

T1 sequence (P28845 whole entry): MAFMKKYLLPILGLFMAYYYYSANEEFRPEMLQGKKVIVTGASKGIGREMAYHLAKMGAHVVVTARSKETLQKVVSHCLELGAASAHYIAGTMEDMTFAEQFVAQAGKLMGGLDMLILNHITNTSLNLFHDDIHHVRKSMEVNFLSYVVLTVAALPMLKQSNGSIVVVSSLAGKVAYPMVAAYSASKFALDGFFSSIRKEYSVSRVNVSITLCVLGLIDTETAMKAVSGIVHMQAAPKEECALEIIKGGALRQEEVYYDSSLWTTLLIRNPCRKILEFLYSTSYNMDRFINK

| SMILES | IC50 [nM] |
| --- | --- |
| CN1CCN(c2ccc(-c3ccc(C4C(C)(C)OC(N[C@@H](CCO)c5ccccc5F)=NS4(=O)=O)cc3)cc2)CC1 (stereo partly drawn) [Example 114] | 8 |
| Cc1n[nH]cc1-c1ccc(C2C(C)(C)OC(N[C@@H](CCO)c3ccccc3F)=NS2(=O)=O)cc1 (stereo partly drawn) [Example 115, (S)-3-{6,6-Dimethyl-5-[4-(3-methyl-1H-pyrazol-yl)-phenyl]-4,4-dioxo-5,6-dihydro-4H-4lambda6-[1,4,3]oxathiazin-2-ylamino}-3-(2-fluorophenyl)-propan-1-ol] | 5 |
| CN(CCCc1ccc(C2C(C)(C)OC(N[C@@H](CCO)c3ccccc3F)=NS2(=O)=O)cc1)CC(F)F (stereo partly drawn) [Example 116, (S)-3-[5-(4-{3-[(2,2-Difluoroethyl)-methyl-amino]-propyl}-phenyl)-6,6-dimethyl-4,4-dioxo-5,6-dihydro-4H-4lambda6-[1,4,3]oxathiazin-2-ylamino]-3-(2-fluorophenyl)-propan-1-ol] | 5 |
| CNCCCc1ccc(C2C(C)(C)OC(N[C@@H](CCO)c3ccccc3F)=NS2(=O)=O)cc1 (stereo partly drawn) [Example 117, (S)-3-{6,6-Dimethyl-5-[4-(3-methylamino-propyl)-phenyl]-4,4-dioxo-5,6-dihydro-4H-4lambda6-[1,4,3]oxathiazin-2-ylamino}-3-(2-fluorophenyl)-propan-1-ol] | 23 |
| CC1(C)OC(N[C@@H](CCO)c2ccccc2F)=NS(=O)(=O)C1c1ccc(-c2csc(N3CCOCC3)n2)cc1 (stereo partly drawn) [Example 118, (S)-3-{6,6-Dimethyl-5-[4-(2-morpholin-4-yl-thiazol-4-yl)-phenyl]-4,4-dioxo-5,6-dihydro-4H-4lambda6-[1,4,3]oxathiazin-2-ylamino}-3-(2-fluorophenyl)-propan-1-ol] | 8 |
| CC1(C)OC(N[C@@H](CCO)c2ccccc2F)=NS(=O)(=O)C1c1ccc(-c2ccncc2)cc1 (stereo partly drawn) [Example 119, (S)-3-[6,6-Dimethyl-4,4-dioxo-5-(4-pyridin-4-yl-phenyl)-5,6-dihydro-4H-4lambda6-[1,4,3]oxathiazin-2-ylamino]-3-(2-fluorophenyl)-propan-1-ol] | 6 |
| CC1(C)OC(N[C@@H](CCO)c2ccccc2F)=NS(=O)(=O)C1c1ccc(-c2ccc(C(N)=O)cc2)cc1 (stereo partly drawn) [Example 120, 4′-{2-[(S)-1-(2-fluorophenyl)-3-hydroxy-propylamino]-6,6-dimethyl-4,4-dioxo-5,6-dihydro-4H-4lambda6-[1,4,3]oxathiazin-5-yl}-biphenyl-4-carboxylic acid amide] | 6 |
| CC1(C)OC(N[C@@H](CCO)c2ccccc2F)=NS(=O)(=O)C1c1ccc(-c2cn[nH]c2)cc1 (stereo partly drawn) [Example 121, (S)-3-{6,6-Dimethyl-4,4-dioxo-5-[4-(1H-pyrazol-4-yl)-phenyl]-5,6-dihydro-4H-4lambda6-[1,4,3]oxathiazin-2-ylamino}-3-(2-fluorophenyl)-propan-1-ol] | 8 |
| CN(CCO)CCCc1ccc(C2C(C)(C)OC(N[C@@H](CCO)c3ccccc3F)=NS2(=O)=O)cc1 (stereo partly drawn) [Example 122] | 35 |
| CN(C)Cc1ccc(-c2ccc(C3C(C)(C)OC(N[C@@H](CCO)c4ccccc4F)=NS3(=O)=O)cc2)cc1 (stereo partly drawn) [Example 123, (S)-3-[5-(4′-Dimethylaminomethyl-biphenyl-4-yl)-6,6-dimethyl-4,4-dioxo-5,6-dihydro-4H-4lambda6-[1,4,3]oxathiazin-2-ylamino]-3-(2-fluorophenyl)-propan-1-ol] | 13 |
| Cn1cc(-c2ccc(C3C(C)(C)OC(N[C@@H](CCO)c4ccccc4F)=NS3(=O)=O)cc2)cn1 (stereo partly drawn) [Example 124, (S)-3-{6,6-Dimethyl-5-[4-(1-methyl-1H-pyrazol-yl)-phenyl]-4,4-dioxo-5,6-dihydro-4H-4lambda6-[1,4,3]oxathiazin-2-ylamino}-3-(2-fluorophenyl)-propan-1-ol] | 8 |
| CN1CCN(c2ncc(-c3ccc(C4C(C)(C)OC(N[C@@H](CCO)c5ccccc5F)=NS4(=O)=O)cc3)cn2)CC1 (stereo partly drawn) [Example 125, (S)-3-(6,6-Dimethyl-5-{4-[2-(4-methyl-piperazin-1-yl)-pyrimidin-5-yl]-phenyl}-4,4-dioxo-5,6-dihydro-4H-4lambda6-[1,4,3]oxathiazin-2-ylamino)-3-(2-fluorophenyl)-propan-1-ol] | 4 |

From US8895547B2, “Substituted phenyl-oxathiazine derivatives, method for producing them, drugs containing said compounds and the use thereof” (Sanofi, priority 2011, dated 2014)
